Assay results as given in patent US6426355B1, “Heterocyclic carboxamide-containing thiourea inhibitors of herpes viruses containing phenylenediamine group” (American Home Products, priority 1998, dated 2002).
Converted amounts (≈) assume the structure as drawn.

Key:
[1] = tested on: HCMV recombinant mutant virus (RV145); assay: HCMV microtiter plate assay (beta-glucuronidase reporter); format: cell-based, Human Cytomegalovirus; conditions: HCMV in human foreskin fibroblasts
From the text: Ninety-six well plate cultures of human foreskin fibroblasts are infected in the presence of inhibitor compound with a HCMV recombinant mutant virus whose genome contains the prokaryotic beta-glucuronidase gene (Jefferson, R. A., S. M. Burgess, and D. Hirsh. 1986. Beta-glucuronidase from Escherichia coli as a gene fusion marker. Proc. Natl. Acad. Sci. USA 83:8447-8451) whose expression is controlled by a viral promoter. An example of such a virus is RV145 (Jones, T. R., V. P. Muzithras, and Y. Gluzman. 1991. Replacement mutagenesis of the human cytomegalovirus genome: US10 and US11 gene products are nonessential. J. Virol. 65:5860-5872). Since it is under the control of a viral promoter, beta-glucuronidase expression is an indirect indicator of growth and replication of HCMV in this assay. At 96 hours post-infection, the infected cell lysates are prepared (using 50 mM sodium phosphate [pH7.0] containing 0.1% Triton X-100 and 0.1% sarkosyl) and assayed for beta-glucuronidase activity using a substrate for the enzyme which when cleaved yields either a product which can be measured colorimetrically in a spectrophotometer or fluorescently in a microfluorimeter. Examples of such substrates are p-nitrophenyl-beta-D-glucuronide and methylumbelliferylglucuronide, respectively. The presence of an antiviral compound is indicated by the reduced expression of the HCMV genome resident beta-glucuronidase gene, compared to the absence of inhibitor. […] Data from this assay generated using varying amounts of inhibitor compound is also used to estimate the IC50 of an inhibitor compound.

VZV strain Ellen = assay: VZV Antiviral (ELISA) assay; format: cell-based; conditions: VZV strain Ellen in HFF cells
Procedure: For the generation of stock VZV to be used in the assay, VZV strain Ellen (ATCC #VR-1367) is used to infect human foreskin fibroblast (HFF) cells at low multiplicity (less than 0.1) and incubated overnight at 37° C. in 5% CO2. After the overnight incubation, the mixture of uninfected and VZV-infected HFF infected cells are then harvested and added to each well of 96-well plates (3.5×10^4 cells in 100 μl DMEM supplemented with 2% FBS) which contain test compound or the reference standard drug control (in 100 μl DMEM supplemented with 2% FBS per well). These cells are incubated for three days at 37° C. in 5% CO2, then fixed for ELISA assay. The primary antibody is murine anti-VZV glycoprotein II monoclonal antibody (Applied Biosystems, Inc. #13-145-100) and the secondary antibody is goat anti-mouse IgG linked to β-galactosidase. Thus the extent of viral replication is determined by assessing β-galactosidase activity by quantifying the generation of the 4-methyl umbelliferone fluorescent cleavage product after addition of the methyl umbelliferyl-β-D-galactoside (Sigma #M1633) substrate on a microfluorimeter (365 nm for excitation and 450 nm for emission). Antiviral activity (IC50) of the test compound is determined by comparing the flourescence obtained in absence of compound to that obtained in the presence of compound.

| Compound | IC50 (ug/ml) HCMV [1] [µg/mL] | IC50 (ug/ml) VZV (VZV strain Ellen) [µg/mL] |
| --- | --- | --- |
| CN(C)c1cc(NC(=S)Nc2ccc(NC(=O)c3csnn3)cc2)cc(C(F)(F)F)c1 [Example 571] | 0.013 (≈ 0.0279 µM) | >10 |
| O=C(Nc1ccc(NC(=S)NCc2cccc(Cl)c2)cc1)c1csnn1 [Example 572] | 0.0078 (≈ 0.0193 µM) | >10 |
| O=C(Nc1ccc(NC(=S)NCCc2cccc(F)c2)cc1)c1ccco1 [Example 573] | 0.05 (≈ 0.13 µM) | >10 |
| O=C(Nc1ccc(NC(=S)NCCc2ccccc2)cc1)c1ccco1 [Example 574] | 0.089 (≈ 0.244 µM) | >10 |
| O=C(Nc1ccc(NC(=S)NCCc2ccccc2)cc1)c1csnn1 [Example 575] | 0.017 (≈ 0.0443 µM) | 2 (≈ 5.22 µM) |
| O=C(Nc1ccc(NC(=S)NCc2cc(F)cc(F)c2)cc1)c1ccco1 [Example 579] | 0.05 (≈ 0.129 µM) | 6 (≈ 15.5 µM) |
| O=C(Nc1ccc(NC(=S)NCc2cc(F)cc(F)c2)cc1)c1csnn1 [Example 581] | 0.01 (≈ 0.0247 µM) | >10 |
| O=C(Nc1ccc(NC(=S)NCc2cc(Cl)cc(Cl)c2)cc1)c1ccco1 [Example 582] | 0.01 (≈ 0.0238 µM) | 8 (≈ 19 µM) |
| O=C(Nc1ccc(NC(=S)NCc2cc(Cl)cc(Cl)c2)cc1)c1csnn1 [Example 584] | 0.0026 (≈ 0.00593 µM) | >10 |
| O=C(Nc1ccc(NC(=S)NCc2cc(F)cc(C(F)(F)F)c2)cc1)c1ccco1 [Example 585] | 0.015 (≈ 0.0343 µM) | >10 |
| O=C(Nc1ccc(NC(=S)NCc2cc(F)cc(C(F)(F)F)c2)cc1)c1csnn1 [Example 587] | 0.005 (≈ 0.011 µM) | >10 |
| COc1ccc(CCNC(=S)Nc2ccc(NC(=O)c3ccco3)cc2)cc1OC [Example 611] | 0.5 (≈ 1.18 µM) | >10 |
| O=C(Nc1ccc(NC(=S)NCCCc2ccccc2)cc1)c1ccco1 [Example 612] | 0.049 (≈ 0.129 µM) | 1 (≈ 2.64 µM) |
| O=C(Nc1ccc(NC(=S)NCCCc2ccccc2)cc1)c1csnn1 [Example 613] | 0.011 (≈ 0.0277 µM) | >10 |
| O=C(Nc1ccc(NC(=S)NCCc2cc(C(F)(F)F)cc(C(F)(F)F)c2)cc1)c1ccco1 [Example 614] | 0.024 (≈ 0.0479 µM) | 7 (≈ 14 µM) |
| O=C(Nc1ccc(NC(=S)Nc2ccc(I)c(C(F)(F)F)c2)cc1)c1csnn1 [Example 615] | 0.005 (≈ 0.0091 µM) | >10 |
| CN1CCN(c2ccc(CNC(=S)Nc3ccc(NC(=O)c4csnn4)cc3)cc2C(F)(F)F)CC1 [Example 617] | 0.013 (≈ 0.0243 µM) | >10 |
| CN(C)c1cc(CNC(=S)Nc2ccc(NC(=O)c3csnn3)cc2)cc(C(F)(F)F)c1 [Example 618] | 0.0016 (≈ 0.00333 µM) | >10 |
| O=C(Nc1ccc(NC(=S)NCc2ccc(F)c(C(F)(F)F)c2)cc1)c1csnn1 [Example 624] | 0.002 (≈ 0.00439 µM) | >10 |
| O=C(Nc1ccc(NC(=S)NCc2ccccc2Cl)cc1)c1csnn1 [Example 729] | 0.02 (≈ 0.0495 µM) |  |
| O=C(Nc1ccc(NC(=S)NCc2ccccc2F)cc1)c1csnn1 [Example 730] | 0.033 (≈ 0.0852 µM) |  |
| O=C(Nc1ccc(NC(=S)NCc2cccc(F)c2)cc1)c1csnn1 [Example 732] | 0.022 (≈ 0.0568 µM) |  |

| Compound | IC50 (ug/ml) HCMV [1] [µg/mL] | IC50 (ug/ml) VZV (VZV strain Ellen) [µg/mL] |
| --- | --- | --- |
| O=C(Nc1ccc(NC(=S)NCCOc2ccccc2Cl)cc1)c1csnn1 [Example 733] | 0.018 (≈ 0.0415 µM) |  |
| O=C(Nc1ccc(NC(=S)NCCOc2ccccc2F)cc1)c1csnn1 [Example 735] | 0.022 (≈ 0.0527 µM) |  |
| O=C(Nc1ccc(NC(=S)NCCOc2cccc(F)c2)cc1)c1csnn1 [Example 736] | 0.012 (≈ 0.0287 µM) |  |
| O=C(Nc1ccc(NC(=S)Nc2ccc(F)cc2)cc1)c1csnn1 [Example 740] | 0.1 (≈ 0.268 µM) |  |
| C[C@H](NC(=S)Nc1ccc(NC(=O)c2csnn2)cc1)c1ccc(Br)cc1 [Example 815] | 0.0095 (≈ 0.0205 µM) | 0.27 (≈ 0.584 µM) |
| C[C@@H](NC(=S)Nc1ccc(NC(=O)c2csnn2)cc1)c1ccc(Br)cc1 [Example 816] | 0.0053 (≈ 0.0115 µM) | >7.5 |
| CC(NC(=S)Nc1ccc(NC(=O)c2csnn2)cc1)c1cc(C(F)(F)F)cc(C(F)(F)F)c1 (stereo not drawn) [Example 818] | 0.0016 (≈ 0.00308 µM) | >7.5 |
| C[C@H](NC(=S)Nc1ccc(NC(=O)c2csnn2)cc1)c1ccc(Cl)cc1 [Example 820] | 0.006 (≈ 0.0144 µM) | >7.5 |
| C[C@@H](NC(=S)Nc1ccc(NC(=O)c2csnn2)cc1)c1ccc(Cl)cc1 [Example 821] | 0.005 (≈ 0.012 µM) | >7.5 |
| CC(NC(=S)Nc1ccc(NC(=O)c2csnn2)cc1)c1ccc(C#N)cc1 (stereo not drawn) [Example 822] | 0.018 (≈ 0.0441 µM) | >7.5 |
| CC(NC(=S)Nc1ccc(NC(=O)c2cscn2)cc1)c1ccc(Br)cc1 (stereo not drawn) [Example 824] | 0.014 (≈ 0.0303 µM) | 0.17 (≈ 0.368 µM) |
| C[C@H](NC(=S)Nc1ccc(NC(=O)c2csnn2)cc1)c1cc(C(F)(F)F)cc(C(F)(F)F)c1 [Example 825] | 0.0013 (≈ 0.0025 µM) | >7.5 |
| CC(NC(=S)Nc1ccc(NC(=O)c2csnn2)cc1)c1ccc(F)c(C(F)(F)F)c1 (stereo not drawn) [Example 828] | 0.002 (≈ 0.00426 µM) | >7.5 |
| CC(NC(=S)Nc1ccc(NC(=O)c2cscn2)cc1)c1cc(F)cc(C(F)(F)F)c1 (stereo not drawn) [Example 831] | 0.0011 (≈ 0.00235 µM) | >7.5 |
| CC(NC(=S)Nc1ccc(NC(=O)c2cscn2)cc1)c1ccc(C(F)(F)F)cc1F (stereo not drawn) [Example 832] | 0.001 (≈ 0.00213 µM) | >7.5 |
| CC(NC(=S)Nc1ccc(NC(=O)c2cscn2)cc1)c1cc(C(F)(F)F)ccc1F (stereo not drawn) [Example 833] | 0.0019 (≈ 0.00406 µM) | >7.5 |
| Cc1ccc(C(C)NC(=S)Nc2ccc(NC(=O)c3cscn3)cc2)c(C)c1 (stereo not drawn) [Example 834] | 0.002 (≈ 0.00487 µM) | >7.5 |
| CC(NC(=S)Nc1ccc(NC(=O)c2cscn2)cc1)c1ccc(Cl)cc1Cl (stereo not drawn) [Example 836] | 0.004 (≈ 0.00886 µM) | >7.5 |
| Cc1cccc(C(C)NC(=S)Nc2ccc(NC(=O)c3cscn3)cc2)c1 (stereo not drawn) [Example 837] | 0.03 (≈ 0.0757 µM) | 3.60 (≈ 9.08 µM) |
| CC(NC(=S)Nc1ccc(NC(=O)c2cscn2)cc1)c1ccc(F)cc1Br (stereo not drawn) [Example 854] | 0.02 (≈ 0.0417 µM) |  |
| CC(NC(=S)Nc1ccc(NC(=O)c2cscn2)cc1)c1ccc(Br)c(Br)c1 (stereo not drawn) [Example 855] | 0.02 (≈ 0.037 µM) |  |
| CC(NC(=S)Nc1ccc(NC(=O)c2cscn2)cc1)c1ccc(F)c(Cl)c1 (stereo not drawn) [Example 856] | 0.02 (≈ 0.046 µM) |  |
